# Test: Human HepG2 cell viability assay in 384 well format
# Assay type: toxicity, cell-based
# Set-up: dose 125 nL, time 70.5 hour; concentration not given beside the values
# Conditions: HepG2 cells, read-out: Inhibition
row,SMILES,cytotoxicity at 70.5 h [%]
1,Cc1cc(C)n(C2CCCN(C(=O)CCNc3ncccn3)C2)n1 (centres undefined),-2.87
2,CCNC(c1ccc(C(C)C)cc1)c1cccnc1 (centres undefined),2.26
3,Cc1ccc(N2CCCC(NCC(=O)Nc3cc(C)nn3C)C2)nn1 (centres undefined),-4.79
4,CCNC(c1ccc(Br)cc1)c1cccnc1 (centres undefined),1.53
5,CCNC(c1ccc(C)cc1)c1cccnc1 (centres undefined),0.38
6,Cc1cc(C)n(C2CCCN(C(=O)CCCc3ccccn3)C2)n1 (centres undefined),-0.29
7,Cc1noc(CN2CCCC(Cn3nc(C)nc3C)C2)n1 (centres undefined),-6.06
8,Cc1ccc(NC2CCN(C(=O)Cc3ccc(C)s3)CC2)nn1,-7.07
9,CCc1ncc(C(=O)N2CCCC2Cn2cccn2)s1 (centres undefined),12.3
10,CCc1noc(CN2CCCC(Cn3nc(C)nc3C)C2)n1 (centres undefined),-12.1
11,Cc1nc(C)n(CC2CCCN(Cc3noc(C)n3)C2)n1 (centres undefined),-5.88
12,COc1ncccc1CNCc1c(C)nn(C)c1N(C)C,19.7
13,Cc1ccc(O)c(C(=O)N2CCCC(NC(=O)C(C)C)C2)c1 (centres undefined),-6.92
14,O=C(NCCc1cccs1)NCC(O)c1cccc(F)c1 (centres undefined),-7.4
15,Cc1ccc(-c2n[nH]cc2CNCC2CCN(CC(C)O)CC2)cc1 (centres undefined),-1.53
16,COc1ccc(CCNC(=O)NCC(O)c2cccc(F)c2)cc1 (centres undefined),8.74
17,O=C(c1cnc(C2CC2)s1)N1CCCC1Cn1cccn1 (centres undefined),-4.89
18,CCOc1cccc2c1OCC(C(=O)NS(=O)(=O)c1c(C)noc1C)=C2,-2.53
19,Cc1cnn(CC2CCCN2C(=O)c2cnc(-c3ccco3)s2)c1 (centres undefined),-9.06
20,CCN(c1cc(C)cc(C)c1)S(=O)(=O)c1cc(C(=O)O)cs1,-7.47
21,Cc1cnn(C2CCCN(C(=O)c3cn4ccccc4n3)C2)c1 (centres undefined),17.4
22,COC(=O)c1cccc(C(=O)NCc2ccc3c(c2)CCCN3C)c1,-3.61
23,Cc1ccc(N(C)S(=O)(=O)c2cc(C(=O)O)cs2)c(C)c1,0.683
24,CCn1cnnc1CNC(=O)N(C)Cc1cccc(OC(F)F)c1,-0.632

row,SMILES,cytotoxicity at 70.5 h [%]
1,CC(C)c1cnc(CN(C)C2CCN(CCn3cc(C#N)cn3)C2)o1 (centres undefined),-2.83
2,Cc1nccn1CCCC(=O)N1CCCN(c2cccnn2)CC1,-2.35
3,CN(C)c1ncccc1C(=O)N1CCCC1Cn1cccn1 (centres undefined),-5.68
4,O=C(c1cnn(-c2ccccc2Cl)c1)N1CCN(CCO)CC1,-5.36
5,Cc1nn(C)c(Cl)c1C1CCCN1C(=O)c1ccnn1C (centres undefined),-14.4
6,COc1ccc(CNC(=O)NCCc2csc(C)n2)cn1,10.9
7,CN(CCc1ccccc1)Cc1nc2c(cnn2C)c(=O)[nH]1,-10.9
8,Cc1ncc(C(=O)N2CCCC(n3cccn3)C2)s1 (centres undefined),-11.8
9,O=C(c1cnc(-c2ncccn2)s1)N1CCCC(n2cccn2)C1 (centres undefined),-10.1
10,Cc1nc(C)n(CC2CCCN2c2ncnc3ccsc23)n1 (centres undefined),-5.53
11,Cc1cnn(CC2CCCN2C(=O)c2ccccc2-n2cccn2)c1 (centres undefined),-12.6
12,COc1c(C2CCCN2C(=O)c2nccnc2N)c(C)nn1C (centres undefined),-13
13,Cc1ncncc1C(=O)N1CCCC1c1c(C)nn(C)c1Cl (centres undefined),-10.6
14,Cc1nn(C)c(Cl)c1C1CCCN1C(=O)c1cnccn1 (centres undefined),-7.92
15,O=C(CCCc1ccccn1)N1CCCC1c1noc(C2CC2)n1 (centres undefined),-9.72
16,CN(Cc1nnc2n1CCC2)C(=O)c1ccc2c(c1)OCCO2,44.2
17,Cc1csc(N2CCCN(C(=O)Cc3ccc(C)s3)CC2)n1,16.1
18,CCOc1ccc(NC(=O)N(C)Cc2cnn(C)c2)c(C)c1,-5.21
19,CC(C)c1ccc(OCC(=O)N2CCOCC2c2ncon2)cc1 (centres undefined),-8.54
20,Cc1csc(N2CCCN(C(=O)Cc3cccs3)CC2)n1,-5.57
21,CC(C)n1nc2c(cc1=O)CN(CCCN1CCCC1=O)CC2,-9.82
22,CC(C(=O)NCc1ccc(N2CCCC2)nc1)S(C)(=O)=O (centres undefined),15.7
23,CC(C(=O)NCc1ccc(N2CCCCC2)nc1)S(C)(=O)=O (centres undefined),-5.42
24,Cc1csc(N2CCN(C(=O)NCCNc3ncccn3)CC2)n1,-5.98

row,SMILES,cytotoxicity at 70.5 h [%]
1,O=C(NCCNc1ncccn1)C1CC(=O)N(Cc2ccccc2)C1 (centres undefined),-8.64
2,COc1ccc(NC(=O)NCCCn2nc3ccccn3c2=O)cc1,-3.39
3,O=C(NCCCn1nc2ccccn2c1=O)Nc1ccccc1Cl,0.153
4,O=C(CCN1CCCN(c2nccs2)CC1)Nc1ccccc1,28.8
5,CN(CCNC(=O)c1scnc1Cl)c1ccccc1,2.36
6,Cc1csc(N2CCCN(C(=O)c3c(C)oc(C)c3C)CC2)n1,-1.91
7,Cc1ccc(CNC(=O)N2CCN(Cc3ccsc3)CC2)n1C,30.9
8,CCc1[nH]ncc1C(=O)N1CCCC(n2cccn2)C1 (centres undefined),3.94
9,Cc1ccc(N2CCCN(C(=O)c3c(C)oc(C)c3C)CC2)nn1,-4.32
10,NC(=O)CN1CCCN(C(=O)Cc2ccc3ccccc3c2)CC1,33.3
11,Cc1ccc(NC2CCN(C(=O)c3n[nH]c4ccccc34)CC2)nn1,1.27
12,Cc1ccc(NC2CCN(C(=O)c3cnc(C)s3)CC2)nn1,-6.52
13,c1ccc2cc(OCCN3CCn4c(nnc4C4CC4)C3)ccc2c1,31
14,O=C(CCN1CCCN(c2nccs2)CC1)NCC1CCCCC1,-8.1
15,Cc1ccc(-c2nc(CN3CCn4c(nnc4C4CC4)C3)co2)cc1,-5.93
16,Cc1ccc(C(=O)N2CCN(Cc3ccsc3)CC2)n1C,-7.84
17,Cc1cnc(CN(C)C2CCN(CCc3cnn(C)c3)C2)o1 (centres undefined),-0.678
18,Cc1csc(N2CCCN(C(=O)c3cnns3)CC2)n1,31.6
19,CCCn1[nH]cc/c1=N\C(=O)CN1CCc2cnc(CC)nc2C1,2.85
20,CC1CCN(C(=O)c2cccc3ncccc23)CC1,4.77
21,Cc1nc(C2CCCN2Cc2ncc(C(C)C)o2)no1 (centres undefined),42.3
22,N#Cc1ccccc1OCCN1CCn2c(nnc2C2CC2)C1,5.39
23,CCn1ccnc1CN1CCC(N(C)Cc2ncc(C)o2)C1 (centres undefined),20.1
24,Cc1cnn(CC2CCCCN2CCn2cncn2)c1 (centres undefined),1.52

row,SMILES,cytotoxicity at 70.5 h [%]
1,O=C(Cn1cccnc1=O)NCCc1ccc2c(c1)OCCO2,5.28
2,NC(=O)CC1CCN(C(=O)NCc2ccccc2-n2cccn2)CC1,-1.19
3,OC(COc1ccccc1)CN1CCc2c(ncn2C2CC2)C1 (centres undefined),-6.53
4,Cc1nc(CN2CCN(Cc3nccn3C)CC2)no1,3.86
5,CCC(=O)N(C)CC(=O)Nc1ccc(Br)cn1,2.06
6,Cc1cnn(CC2CN(CC(=O)N(C)Cc3cccs3)CCO2)c1 (centres undefined),-1.56
7,Cc1cc(C)n(CC2CCCCN2C(=O)c2ccc3nncn3c2)n1 (centres undefined),-2.04
8,CCc1nc(C2CCCN2C(=O)c2c[nH]c(C)n2)no1 (centres undefined),27.8
9,CCc1nc(C2CCCN2C(=O)c2cc(C3CC3)[nH]n2)no1 (centres undefined),-1.42
10,O=C(NCc1ccccc1-n1cccn1)N1CCN2CCCCC2C1 (centres undefined),1.19
11,Cc1nn(C)cc1CCC(=O)N1CCCC(n2cncn2)C1 (centres undefined),6.4
12,Cc1nc(C)n(CC2CCCN2Cc2cn(-c3ccccc3)nn2)n1 (centres undefined),2.44
13,O=C(Cc1csc(-c2nnc[nH]2)n1)N1CCCC1Cn1cccn1 (centres undefined),-8.18
14,CN(C)CC1CN(Cc2nnc(-c3ccccc3Cl)o2)CCO1 (centres undefined),3.65
15,CN(C)CC1CN(Cc2coc(-c3ccccc3Cl)n2)CCO1 (centres undefined),7.1
16,CCN(CC)C1CCN(C(=O)NCc2nncn2CC)CC1,-0.0969
17,CC(NC(=O)N1CCN(c2ccccc2)CC1)c1nncn1C (centres undefined),-15.6
18,Cn1ncc(NCc2cc(F)cc(F)c2)c(Cl)c1=O,-7.18
19,CC1CN(c2ccc(CNC(=O)c3ccn(C)c(=O)c3)cn2)CCO1 (centres undefined),-8.78
20,Cc1cc(NC(=O)N(CC2CCOC2)C2CC2)no1 (centres undefined),-11.9
21,Cc1noc(C2CCN(Cc3cc(=O)n(C)c(=O)n3C)CC2)n1,-13.2
22,Cn1cnnc1C1CCCN(C(=O)c2cc(Cl)c3c(c2)OCO3)C1 (centres undefined),-11.6
23,CCCn1[nH]cc/c1=N\C(=O)CN1CCOC(Cn2cc(C)cn2)C1 (centres undefined),-14.6
24,Cn1ncc(NCc2cccc(COC(C)(C)C)c2)c(Cl)c1=O,7.28

row,SMILES,cytotoxicity at 70.5 h [%]
1,CC(CC#N)NC(=O)c1cc(Br)c2c(c1)OCCO2 (centres undefined),0.544
2,Cn1cnc2c1CCN(CCCc1ccccc1)C2,-1.08
3,Cn1ccc(C(=O)NCc2ccc(N3CCCC3)nc2)cc1=O,-5.51
4,Cc1ccc(C(=O)N2CCCS2(=O)=O)cc1Cl,-19.9
5,CCOCCN1CCCC(c2cc(C(N)=O)[nH]n2)C1 (centres undefined),-13.1
6,COc1ccccc1OCCN1CCCC(c2cc(C(N)=O)[nH]n2)C1 (centres undefined),-9.71
7,Cc1cc(C2CCCN2Cc2cc(=O)n(C)c(=O)n2C)on1 (centres undefined),-12.3
8,Cn1nc2c(cc1=O)CN(Cc1nc(-c3cccs3)no1)CC2,-14.3
9,Cc1cc(CN(C)C(=O)c2ccc(C(F)(F)F)nc2)no1,-19.6
10,Cn1c(C2CC2)nc2c1CCN(CCS(=O)(=O)c1ccccc1)C2,-14.4
11,COCCc1noc(CN2CCCC2Cn2cc(C)cn2)n1 (centres undefined),18.1
12,CCN1CCC(NC(=O)CN2CCCCC2Cn2cc(C)cn2)CC1 (centres undefined),53.1
13,CCOCCN1CCn2c(C)nnc2C1,16.1
14,CCN(Cc1nc2c(cnn2C)c(=O)[nH]1)c1cccc(F)c1,-5.89
15,Cc1cc(CN2CCN(c3nn4cc(C)nc4s3)CC2)on1,-7.1
16,COc1ccc(COCC(O)CNC(=O)c2cc(C)cc(C)c2)cc1 (centres undefined),-11.8
17,O=C(Nc1ccccc1F)N1CCN(Cc2noc(C3CC3)n2)CC1,-10.2
18,Cc1nc(C)n(CC2CCCN(c3ncnc4[nH]ccc34)C2)n1 (centres undefined),3.27
19,Cc1cnn(CC2CCCCN2C(=O)c2cc(C(N)=O)cs2)c1 (centres undefined),28.2
20,Cc1nn(C)c(C)c1C1CCCN1C(=O)c1cc[nH]n1 (centres undefined),-3.7
21,c1cnnc(N2CCCC2CNc2ncnc3c2CCC3)c1 (centres undefined),-2.98
22,COc1ccccc1C(=O)NC(C)CC(=O)O (centres undefined),-7.64
23,Cc1nn(C)c(N(C)C)c1CNCc1ccc(OCC(N)=O)cc1,0.111
